Two molecules from patent publication US9975849B1, “Gossypol l-arginine schiff base compound with antitumor activities and a method of preparing the same” (SHAANXI PANLONG PHARMACEUTICAL GROUP LIMITED BY SHARE LTD., priority 2017, dated 2018) can be followed below.

Common to all, as to format: cell-based
Test [1] has as its system human hepatoma cells (HepG2). The test is described as follows: MTT tumor cell proliferation inhibition test, HepG2. As to conditions: for IC50: Homo sapiens, read-out: Half Inhibitory Concentration IC50 HepG2. The protocol:
(§1) The compounds of the present invention were subjected to tumor cell proliferation inhibition test, and conventional MTT method was used.
(§2) Cell lines: human hepatoma cells (HepG2), human lung cancer cells (A-549), human gastric cancer cells (SGC-7901). The culture medium was DMEM+15% NBS+double antibody.
(§3) Sample solution preparation: after dissolving with DMSO (Merck), PBS (-) was added to obtain 100 μmol/L solution or homogeneous suspension. The solution was diluted with PBS (-) in DMSO to a final concentration of 0.1, 1, 10, 20, 40, 60, 80, 100 μmol/L.
(§4) Anti-uterine fibroids drug gossypol was used as control solution, prepared under the same condition.
(§5) Cell culture: adherent growth Tumor cells were cultured in 1640 medium containing 10% inactivated neonatal bovine serum and penicillin, streptomycin (1 million U/L), placed in carbon dioxide incubator at 37° C., 5% CO2, and saturated humidity. Cells were treated serially passaged 2-3 times. The first culture was washed with PBS 2 times, and digested with trypsin. Fresh culture medium was added evenly, cells were adjusted to a appropriate concentration and transferred into a new culture flask. […]
(§6) Experimental Principle: Living cells mitochondria in the dehydrogenase can reduce yellow MTT to water-insoluble blue-violet product MT (MTT formazan), deposited in the cells. […] DMSO can dissolve blue violet crystals, and the color depth is proportional to the amount contained, so the absorbance measured by the microplate reader can reflect the cell viability.
(§7) Methods: The exponential phase cells were digested and counted and seeded in 96-well plates at a density of 2×10^4/mL at 100 μl per well. […] After 48 hours, the supernatant was discarded, and 100 μl of MTT ((2-(4,5-dimethyl-2-thiazolyl)-3,5-diphenyl-2H-[…]) (1 mg/mL) was added to each well. After another 4 hours, the supernatant was discarded, and 100 μl of DMSO was added to each well. After mixing, the absorbance was measured at 570 nm using a microplate reader. An IC50 calculation software was used to determine the half inhibitory concentration (IC50).

The subject of test [2] is human lung cancer cells (A-549). In words: MTT tumor cell proliferation inhibition test, A-549. On the procedure: as §1, §2, §3, §4, §5, §6, §7
For test [3], the system named is human gastric cancer cells (SGC-7901). In words: MTT tumor cell proliferation inhibition test, SGC-7901. The conditions noted are these: for IC50: Homo sapiens, read-out: Half Inhibitory Concentration IC50 SGC-7901. On the procedure:
as §1, §2, §3, §4
Cell culture: adherent growth Tumor cells were cultured in 1640 medium containing 10% inactivated neonatal bovine serum and penicillin, streptomycin (1 million U/L), placed in carbon dioxide incubator at 37° C., 5% CO2, and saturated humidity. Cells were treated serially passaged 2-3 times. The first culture was washed with PBS 2 times, and digested with trypsin. Fresh culture medium was added evenly, cells were adjusted to a appropriate concentration and transferred into a new culture flask. Cell in an exponential phase were chosen for the tests.
MTT Assay for Cell Viability and IC50 Determination:
Experimental Principle: Living cells mitochondria in the dehydrogenase can reduce yellow MTT to water-insoluble blue-violet product MT (MTT formazan), deposited in the cells. The amount of production is proportional to the number of living cells. […] DMSO can dissolve blue violet crystals, and the color depth is proportional to the amount contained, so the absorbance measured by the microplate reader can reflect the cell viability.
Methods: The exponential phase cells were digested and counted and seeded in 96-well plates at a density of 2×10^4/mL at 100 μl per well. After 24 hours of incubation, the cells to be tested were treated with 0.1, 1, 10, 20, 40, 60, 80, 100 μmol/L of the compounds. Each experimental group had 5 wells in each concentration, and the culture medium containing 0.4% DMSO was used as control. After 48 hours, the supernatant was discarded, and 100 μl of MTT ((2-(4,5-dimethyl-2-thiazolyl)-3,5-diphenyl-2H-[…]) (1 mg/mL) was added to each well. After another 4 hours, the supernatant was discarded, and 100 μl of DMSO was added to each well. After mixing, the absorbance was measured at 570 nm using a microplate reader. An IC50 calculation software was used to determine the half inhibitory concentration (IC50).

Read-outs that look alike come from different tables or passages of the source.

With `Cc1cc2c(C(C)C)c(O)c(O)c(/C=N\C(=N)NCCC[C@H](N)C(=O)O)c2c(O)c1-c1c(C)cc2c(C(C)C)c(O)c(O)c(/C=N/C(=N)NCCC[C@H](N)C(=O)O)c2c1O` [Gossypol L-arginine Schiff base compound, gossypol L-arginine Schiff base compound], the “antitumor activities (in words)” value in test [1] (HepG2, one of the three cell lines tested) is “excellent antitumor activities”; in test [2] (A549, one of the three cell lines tested) it was “excellent antitumor activities”; in test [3] (SGC-7901, one of the three cell lines tested), “excellent antitumor activities”. In addition, the IC50 in test [1] (MTT, 48 hours treatment, HepG2) amounted to 11.7 ± 0.32 µM; in test [2] (Homo sapiens, MTT, 48 hours treatment, A549, read-out: Half Inhibitory Concentration IC50 A549), 12.3 ± 0.69 µM; in test [3] (MTT, 48 hours treatment, SGC-7901), 9.37 ± 0.36 µM. The “antitumor activities compared with gossypol” value in test [2] (against A549) and in test [3] (against SCG-7901) was “better antitumor activities than gossypol” each time.
As to `Cc1cc2c(C(C)C)c(O)c(O)c(C=O)c2c(O)c1-c1c(C)cc2c(C(C)C)c(O)c(O)c(C=O)c2c1O` [Gossypol, gossypol], the IC50 in test [1] (HepG2, 48 h) was 8.29 ± 0.28 µM; in test [3] (SGC-7901, 48 h), 18.2 ± 0.37 µM.
